Data published in ChEMBL document CHEMBL4483862, “Open-source discovery of chemical leads for next-generation chemoprotective antimalarials” (2018).

Test system: Plasmodium berghei
Test: Luciferase/luciferin-expressing antifolate-resistant parasites were used to infect a culture of HepG2 cells that were pre-incubated with compounds. Infected hepatocytes emit light due to the luciferase reaction. Assay results are presented as the percent inhibition of light emission compared to control. […]
Assay type: functional
Details: sporozoite; for IC90: read-out: LUCIFERASE INFECTION ASSAY - IC90
[1] = read-out: LUCIFERASE INFECTION ASSAY - IC50

## CCCCCCCCCONC(=O)Nc1ccc([N+](=O)[O-])cc1
FFLUC_HILL_SLOPE 17.3, FFLUC_R_SQUARED 0.0693, PBLUC_HILL_SLOPE 3, PBLUC_R_SQUARED 0.451, read-out: LUCIFERASE INFECTION ASSAY - IC50
  IC50: 6.31 µM
  IC90: > 10 µM

## CCN(CC)S(=O)(=O)c1cccc(NC(=O)C23CC4CC(C2)CC(c2ccc(C)cc2)(C4)C3)c1
[1]
  IC50: > 10 µM
  IC90: > 10 µM

## COc1ccc(NC(=O)CN(C)c2nc(-c3cccnc3)nc3sc(C)c(C)c23)cc1
PBLUC_HILL_SLOPE 1.86E+03, PBLUC_R_SQUARED 0.436, read-out: LUCIFERASE INFECTION ASSAY - IC50
  IC50: 3.92 µM
  IC90: 3.92 µM

## Cc1ccc(O)c(C(=O)c2cnc3cc4c(cc3c2)OCCO4)c1
HEPG2TOX_HILL_SLOPE 0.914, HEPG2TOX_R_SQUARED 0.945, PBLUC_HILL_SLOPE 1.42, PBLUC_R_SQUARED 0.804, read-out: LUCIFERASE INFECTION ASSAY - IC50
  IC50: 0.172 µM
  IC90: 0.81 µM

## Fc1ccc(-c2csc3ncnc(Sc4nnnn4-c4ccccc4)c23)cc1
HEPG2TOX_HILL_SLOPE 2.6, HEPG2TOX_R_SQUARED 0.978, PBLUC_HILL_SLOPE 15.6, PBLUC_R_SQUARED 0.498, read-out: LUCIFERASE INFECTION ASSAY - IC50
  IC50: 3.07 µM
  IC90: 3.53 µM

## Cc1cc(/C=N/Nc2ccnc3cc(Cl)ccc23)c(C)n1-c1cc(S(=O)(=O)N2CCOCC2)ccc1N1CCCC1
FFLUC_HILL_SLOPE 15.8, FFLUC_R_SQUARED 0.537, PBLUC_HILL_SLOPE 3.6, PBLUC_R_SQUARED 0.465, read-out: LUCIFERASE INFECTION ASSAY - IC50
  IC50: 6.84 µM
  IC90: > 10 µM

## COc1ccc(NC(=O)C(OC(=O)c2ccccc2SCC(=O)Nc2c(C)n(C)n(-c3ccccc3)c2=O)c2ccccc2)cc1Cl (configuration not stated)
[1]
  IC50: > 10 µM
  IC90: > 10 µM

## O=C1NC(=S)S/C1=C\c1ccc(OCc2ccc(Cl)c(Cl)c2)cc1
HEPG2TOX_HILL_SLOPE 0.0732, HEPG2TOX_R_SQUARED 0.0803, read-out: LUCIFERASE INFECTION ASSAY - IC50
  IC50: > 8.33 µM
  IC90: > 8.33 µM

## CN(C)c1ccc(C(c2cc(C(C)(C)C)c(O)c(C(C)(C)C)c2)N2CCN(CCO)CC2)cc1 (configuration not stated)
FFLUC_HILL_SLOPE 1.7, FFLUC_R_SQUARED 0.646, PBLUC_HILL_SLOPE 0.736, PBLUC_R_SQUARED 0.152, read-out: LUCIFERASE INFECTION ASSAY - IC50
  IC50: > 10 µM
  IC90: > 10 µM

## CNc1nc2cnc(Nc3cccc(C(C)C)c3)cc2n1CCOC
HEPG2TOX_HILL_SLOPE 0.218, HEPG2TOX_R_SQUARED 0.135, read-out: LUCIFERASE INFECTION ASSAY - IC50
  IC50: > 10 µM
  IC90: > 10 µM

## Cc1ccc(CNc2ncnc3sccc23)cc1
HEPG2TOX_HILL_SLOPE 1.53, HEPG2TOX_R_SQUARED 0.949, PBLUC_HILL_SLOPE 1.13, PBLUC_R_SQUARED 0.759, read-out: LUCIFERASE INFECTION ASSAY - IC50
  IC50: 3.63 µM
  IC90: > 10 µM

## COC(=O)c1c(-c2c(Cl)cccc2Cl)noc1CC=Nc1ccc(C(=O)O)cc1
HEPG2TOX_HILL_SLOPE 0.693, HEPG2TOX_R_SQUARED 0.602, read-out: LUCIFERASE INFECTION ASSAY - IC50
  IC50: > 7.62 µM
  IC90: > 7.62 µM

## O=C(c1cc(-c2ccccc2)nc2ccccc12)N1N=CCC1(O)C(F)(F)F (configuration not stated)
PBLUC_HILL_SLOPE 5.58, 3.40, PBLUC_R_SQUARED 0.0168, 0.865, read-out: LUCIFERASE INFECTION ASSAY - IC50
  IC50: 4.5 µM
  IC90: 8.59 µM

## COc1ccc(N2C(=O)C=CC2=O)cc1
FFLUC_HILL_SLOPE 16.4, FFLUC_R_SQUARED 0.242, read-out: LUCIFERASE INFECTION ASSAY - IC50
  IC50: > 16.2 µM
  IC90: > 16.2 µM

## Cc1nc(Sc2nnc3ccccn23)c2c3c(sc2n1)CCCC3
[1]
  IC50: 2.94 µM
  IC90: 3.52 µM

## Cc1nnsc1C(=O)Nc1cccc(C(F)(F)F)c1
HEPG2TOX_HILL_SLOPE 2.18, HEPG2TOX_R_SQUARED 0.919, PBLUC_HILL_SLOPE 3.32, PBLUC_R_SQUARED 0.374, read-out: LUCIFERASE INFECTION ASSAY - IC50
  IC50: 5.46 µM
  IC90: 10.6 µM

## Cc1ccc(NC(=S)Nc2cccc(C(F)(F)F)c2)c(C)c1
PBLUC_HILL_SLOPE 13, PBLUC_R_SQUARED 0.213, read-out: LUCIFERASE INFECTION ASSAY - IC50
  IC50: 9.86 µM
  IC90: > 10.2 µM

## O=C(NCc1cc(C(F)(F)F)cc(C(F)(F)F)c1)c1ccc(Cl)c(Cl)c1
[1]
  IC50: > 7.93 µM
  IC90: > 7.93 µM

## CNC(=O)c1ccc(-c2cc(C(F)(F)F)n(C)n2)s1
[1]
  IC50: > 11.4 µM
  IC90: > 11.4 µM

## Cc1ccc(N/C=C(\C#N)S(=O)(=O)c2ccc(Cl)cc2)cc1
[1]
  IC50: > 9.92 µM
  IC90: > 9.92 µM

## O=C(NCCO)c1cccc(-c2ccc3ncc(-c4cccc(Cl)c4)n3n2)c1
HEPG2TOX_HILL_SLOPE 1.24, HEPG2TOX_R_SQUARED 0.781, PBLUC_HILL_SLOPE 15.2, PBLUC_R_SQUARED 0.219, read-out: LUCIFERASE INFECTION ASSAY - IC50
  IC50: 3.08 µM
  IC90: 3.56 µM

## CC(C)c1ccc(-c2cnc3sc(NCc4ccncc4)nn23)cc1
FFLUC_HILL_SLOPE 6.11, FFLUC_R_SQUARED 0.0312, HEPG2TOX_HILL_SLOPE 0.148, HEPG2TOX_R_SQUARED 0.0475, read-out: LUCIFERASE INFECTION ASSAY - IC50
  IC50: > 9.44 µM
  IC90: > 9.44 µM

## CCCCNC(=O)c1c(NC(=O)c2cccc(OC)c2)nc2ccccn12
HEPG2TOX_HILL_SLOPE 2.8, HEPG2TOX_R_SQUARED 0.959, PBLUC_HILL_SLOPE 5.29, PBLUC_R_SQUARED 0.462, read-out: LUCIFERASE INFECTION ASSAY - IC50
  IC50: 3.27 µM
  IC90: 4.95 µM

## CN1CCCN(c2ccc(NC(=O)OCC(F)(F)F)cc2F)CC1
[1]
  IC50: > 10 µM
  IC90: > 10 µM

## Cc1cn2c(/C=c3\s/c(=C\C(=O)c4ccccc4C)n(C)c3=O)c(C)nc2s1
HEPG2TOX_HILL_SLOPE 2.41, HEPG2TOX_R_SQUARED 0.966, PBLUC_HILL_SLOPE 72.2, PBLUC_R_SQUARED 0.61, read-out: LUCIFERASE INFECTION ASSAY - IC50
  IC50: 0.6 µM
  IC90: 0.619 µM

## COc1ccc(-c2cc(-c3cccc(NS(C)(=O)=O)c3)cnc2N)c(OC)c1
HEPG2TOX_HILL_SLOPE 1.15, HEPG2TOX_R_SQUARED 0.874, PBLUC_HILL_SLOPE 1.81, PBLUC_R_SQUARED 0.713, read-out: LUCIFERASE INFECTION ASSAY - IC50
  IC50: 1.27 µM
  IC90: 4.29 µM

## O=C(O)c1cnc2cc(Cl)cc(Cl)c2c1O
FFLUC_HILL_SLOPE 2.26, FFLUC_R_SQUARED 0.266, PBLUC_HILL_SLOPE 1.77, PBLUC_R_SQUARED 0.584, read-out: LUCIFERASE INFECTION ASSAY - IC50
  IC50: 8.35 µM
  IC90: > 12.8 µM

## CN1C(=O)N(CCCc2ccncc2)C(=O)C12CCN(Cc1cc3ccccc3[nH]1)CC2
HEPG2TOX_HILL_SLOPE 1.79, HEPG2TOX_R_SQUARED 0.954, PBLUC_HILL_SLOPE 8.39, PBLUC_R_SQUARED 0.134, read-out: LUCIFERASE INFECTION ASSAY - IC50
  IC50: 6.78 µM
  IC90: > 7.65 µM

## COc1cc(NC(=O)c2sccc2Oc2ccccc2[N+](=O)[O-])c(Cl)cc1Cl
[1]
  IC50: > 7.51 µM
  IC90: > 7.51 µM

## Cc1ccccc1-n1c(Sc2ncccc2[N+](=O)[O-])nc2ccccc2c1=O
[1]
  IC50: > 10 µM
  IC90: > 10 µM

## CCNc1nnc(SC(C)C(=O)Nc2ccc(OC(F)F)cc2)s1 (configuration not stated)
[1]
  IC50: > 10 µM
  IC90: > 10 µM

## CCOC(=O)c1cnn(-c2c(Cl)cc(Cl)cc2Cl)c1-c1ccccc1
[1]
  IC50: > 8.34 µM
  IC90: > 8.34 µM

## Cc1noc(C)c1COc1ccc(C(=O)OCC(=O)N(C)C2(C#N)CCCCC2)cc1
[1]
  IC50: > 10 µM
  IC90: > 10 µM

## O=S(=O)(c1ccccc1)N1CN(c2ccc(N3CCOCC3)cc2)c2nc3ccccc3nc21
[1]
  IC50: > 10 µM
  IC90: > 10 µM

## Cc1cc2oc3c(c2cc1NS(=O)(=O)c1cccs1)CC(C)CC3 (configuration not stated)
[1]
  IC50: > 10 µM
  IC90: > 10 µM

## O=S(=O)(Nc1cccc(-c2ncon2)c1)c1cc(C(F)(F)F)cc(C(F)(F)F)c1
[1]
  IC50: 0.531 µM
  IC90: > 7.55 µM

## CCc1c(C#N)c(SCC(=O)c2cc(C)n(-c3ccccc3)c2C)nc2c1C(=O)CC(C)(C)C2
[1]
  IC50: > 10 µM
  IC90: > 10 µM

## N#Cc1ccc(/C=C/C(=O)c2cccc3ccccc23)cc1
HEPG2TOX_HILL_SLOPE 12.4, HEPG2TOX_R_SQUARED 0.741, PBLUC_HILL_SLOPE 61.7, PBLUC_R_SQUARED 0.602, read-out: LUCIFERASE INFECTION ASSAY - IC50
  IC50: 7.66 µM
  IC90: 7.94 µM

## Cn1ccc2cc(-c3cnc4cnc(-c5ccccc5)cn34)ccc21
HEPG2TOX_HILL_SLOPE 1.21, HEPG2TOX_R_SQUARED 0.923, PBLUC_HILL_SLOPE 1.33, PBLUC_R_SQUARED 0.803, read-out: LUCIFERASE INFECTION ASSAY - IC50
  IC50: 0.0465 µM
  IC90: 0.242 µM

## Nc1cc(C(F)(F)F)ccc1Oc1ccc(Cl)cc1Cl
[1]
  IC50: > 10.2 µM
  IC90: > 10.2 µM

## CN(CC(=O)Nc1ccc(F)c(F)c1F)C(C(=O)Nc1ccc(Cl)c(C(F)(F)F)c1)c1ccccc1 (configuration not stated)
[1]
  IC50: 6.74 µM
  IC90: > 10 µM

## COc1ccc(N2CCN(c3nccnc3-c3ccccc3)CC2)cc1OC
[1]
  IC50: 0.382 µM
  IC90: 0.978 µM

## CN(C)C(=O)CNC(=O)c1cc(-c2ccccc2)nc2c1cnn2Cc1ccccc1Cl
PBLUC_HILL_SLOPE 13.5, PBLUC_R_SQUARED 0.27, read-out: LUCIFERASE INFECTION ASSAY - IC50
  IC50: 8.61 µM
  IC90: > 10 µM

## COc1ccc(-c2cnc3ccc(NCc4ccc(Cl)c(Cl)c4)nn23)cn1
[1]
  IC50: 4.63 µM
  IC90: 4.73 µM

## C=C(C)C(=O)Nc1ccc([N+](=O)[O-])cc1Cl
[1]
  IC50: > 13.7 µM
  IC90: > 13.7 µM

## Nc1cccc2c1C(=O)N(C(=O)/C=C/c1cccc(F)c1)C2=O
HEPG2TOX_HILL_SLOPE 0.728, HEPG2TOX_R_SQUARED 0.696, PBLUC_HILL_SLOPE 1.8, PBLUC_R_SQUARED 0.344, read-out: LUCIFERASE INFECTION ASSAY - IC50
  IC50: 8.07 µM
  IC90: > 10 µM
